Test results from patent US6689783B2, “Aryl oxime-piperazines useful as CCR5 antagonists” (priority 2001, dated 2004).
Where a name gives a salt, the structure may show the parent alone.

Experiments:
[1] = system: U87 cells stably expressing CD4 and the chemokine receptor CCR5; experiment: HIV-1 entry assay (luciferase reporter virions); format: cell-based; conditions: Human immunodeficiency virus 1, U87/CD4/CCR5, read-out: Viral Entry IC50
Protocol: Several types of assays can be used to determine the CCR5 inhibitory and antagonistic activity of the compounds of the invention. Some are, for example, the CCR5 Membrane Binding Assay, the HIV-1 Entry Assay, HIV-1 Replication Assay, the Calcium Flux Assay, the GTPγS Binding Assay (secondary membrane binding assay) and the Chemotaxis Assay. Compounds of this invention were evaluated for their ability to inhibit CCR5 receptor mediated viral entry using an HIV-1 entry assay, which is described below:
Replication defective HIV-1 reporter virions are generated by cotransfection of a plasmid encoding the NL4-3 strain of HIV-1 (which has been modified by mutation of the envelope gene and introduction of a luciferase reporter plasmid) along with a plasmid encoding one of several HIV-1 envelope genes as described by Connor et al, Virology, 206 (1995), 935-944. Following transfection of the two plasmids by calcium phosphate precipitation, the viral supernatants are harvested on day 3 and a functional viral titer determined. These stocks are then used to infect U87 cells stably expressing CD4 and the chemokine receptor CCR5 which have been preincubated with or without test compound. Infections are carried out for 2 hours at 37° C., the cells washed and media replaced with fresh media containing compound. The cells are incubated for 3 days, lysed and luciferase activity determined. […]

melting point | SMILES | IC50 [1]
– | CCON=C(c1ccc(C(F)(F)F)cc1)N1CCN(C2(C)CCN(C(=O)c3c(C)ncnc3C)CC2)C[C@@H]1C [Ih, 1-[(4,6-dimethyl-5-pyrimidinyl)carbonyl]-4-[4-[(ethoxyimino)[4-(trifluoromethyl)phenyl]methyl]-3(s)-methyl-1-piperazinyl]-4-methylpiperidine] | 0.0165 µM
165 to 169 °C | CCON=C(c1ccc(OC(F)(F)F)cc1)N1CCN(C2(C)CCN(C(=O)c3c(C)ncnc3C)CC2)C[C@@H]1C (as salt: HCl) | –
